Experiments:
MCF-7 cells [1] = experiment: cells; conditions: Homo sapiens, MCF7, read-out: In vitro cytotoxicity IC50, MCF-7
HepG2 cells = experiment: cells; conditions: Homo sapiens, HepG2, read-out: In vitro cytotoxicity IC50, HepG2
Human VEGFR-2 = Human VEGFR-2 (Homo sapiens, UniProt P35968); experiment: In vitro VEGFR-2 inhibition, VEGFR-2 ELISA kit; format: biochemical
Bcl-2 = format: cell-based; conditions: MCF-7, 0.04 μM
MCF-7 cells [2] = experiment: Cell cycle analysis by flow cytometry; format: cell-based; conditions: 0.041 μM, 72 h
MCF-7 cells [3] = experiment: Cell migration and scratch wound healing assay; format: cell-based
[4] = test system: normal human lung cells (WI-38); experiment: cells; conditions: WI-38, read-out: WI-38 IC50
[5] = test system: normal human lung cells (WI-38); conditions: WI-38 versus HepG2
MCF-7 cells [6] = experiment: Apoptosis assay, annexin V-FITC/PI; format: cell-based; conditions: 0.04 μM, 72 h

Human VEGFR-2, sequence (P35968 20-1356): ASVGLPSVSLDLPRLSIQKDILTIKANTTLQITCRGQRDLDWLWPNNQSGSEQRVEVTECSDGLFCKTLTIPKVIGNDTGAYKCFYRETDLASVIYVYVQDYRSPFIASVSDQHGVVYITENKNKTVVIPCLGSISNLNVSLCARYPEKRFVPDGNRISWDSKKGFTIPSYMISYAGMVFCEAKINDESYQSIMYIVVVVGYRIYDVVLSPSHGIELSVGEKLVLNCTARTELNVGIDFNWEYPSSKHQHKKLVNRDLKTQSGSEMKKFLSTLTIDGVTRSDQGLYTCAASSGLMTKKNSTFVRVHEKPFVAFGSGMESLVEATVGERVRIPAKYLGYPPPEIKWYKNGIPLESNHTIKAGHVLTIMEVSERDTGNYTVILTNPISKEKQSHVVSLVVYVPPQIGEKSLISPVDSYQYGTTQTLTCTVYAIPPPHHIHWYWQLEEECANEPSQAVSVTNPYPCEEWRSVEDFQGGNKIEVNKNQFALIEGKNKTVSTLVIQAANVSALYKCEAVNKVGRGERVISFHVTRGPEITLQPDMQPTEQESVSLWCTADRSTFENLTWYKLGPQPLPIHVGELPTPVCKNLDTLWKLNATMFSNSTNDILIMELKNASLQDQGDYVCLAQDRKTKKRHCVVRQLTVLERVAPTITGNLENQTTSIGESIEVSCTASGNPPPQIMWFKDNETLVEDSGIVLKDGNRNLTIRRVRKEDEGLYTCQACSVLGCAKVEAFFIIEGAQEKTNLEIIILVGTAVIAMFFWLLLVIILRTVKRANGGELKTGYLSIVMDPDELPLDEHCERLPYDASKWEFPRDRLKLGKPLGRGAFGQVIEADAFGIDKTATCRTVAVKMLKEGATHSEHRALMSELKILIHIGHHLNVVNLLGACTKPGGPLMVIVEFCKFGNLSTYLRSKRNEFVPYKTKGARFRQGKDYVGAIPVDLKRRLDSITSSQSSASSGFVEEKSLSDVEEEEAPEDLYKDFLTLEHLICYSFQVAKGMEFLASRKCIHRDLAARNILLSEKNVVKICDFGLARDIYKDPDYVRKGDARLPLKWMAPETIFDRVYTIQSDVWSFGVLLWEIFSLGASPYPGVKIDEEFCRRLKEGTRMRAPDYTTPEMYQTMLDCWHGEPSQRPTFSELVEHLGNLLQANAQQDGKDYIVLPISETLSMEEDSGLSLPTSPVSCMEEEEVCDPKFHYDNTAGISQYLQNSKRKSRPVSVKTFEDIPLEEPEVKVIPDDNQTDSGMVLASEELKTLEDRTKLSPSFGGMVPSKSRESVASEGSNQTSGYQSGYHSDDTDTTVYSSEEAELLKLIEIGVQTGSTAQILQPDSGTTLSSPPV

SMILES: CC(=O)c1nn(-c2ccc(Cl)cc2)/c(=N/N=C(\C)c2ccc(NC(=O)c3ccccc3)cc2)s1 [Compound 18b, N-(4-((E)-1-(((Z)-5-Acetyl-3-(4-chlorophenyl)-1,3,4-thiadiazol-2(3H)-ylidene) hydrazono)ethyl)phenyl) benzamide]
- IC50 (MCF-7 cells [1]): 220 ± 98 nM
- IC50 (HepG2 cells): 200 ± 11 nM

SMILES: COc1ccc(-n2nc(C(C)=O)s/c2=N\N=C(/C)c2ccc(NC(=O)c3ccccc3)cc2)cc1 [Compound 18a, N-(4-((E)-1-(((Z)-5-Acetyl-3-(4-methoxyphenyl)-1,3,4-thiadiazol-2(3H)-ylidene) hydrazono)ethyl)phenyl) benzamide]
- IC50 (MCF-7 cells [1]): 160 ± 17 nM
- IC50 (HepG2 cells): 800 ± 12 nM

SMILES: COc1ccc(-n2nc(C(C)=O)s/c2=N\N=C(/C)c2ccc(NC(C)=O)cc2)cc1 [Compound 14, N-(4-((E)-1-(((Z)-5-acetyl-3-(4-methoxyphenyl)-1,3,4-thiadiazol-2(3H)-ylidene)hydrazineylidene)ethyl)phenyl)acetamide]
- IC50 (Human VEGFR-2; VEGFR-2 IC50, as printed in section 3.2.3): 243 nM
- IC50 (Human VEGFR-2; VEGFR-2 IC50, as printed in the abstract): 103 nM
- Lowering of Bcl-2 level versus control (Bcl-2): 6.2 fold
- RT-PCR fold change, Bcl2 (Bcl-2; control = 1): 0.159 fold
- IC50 (MCF-7 cells [1]): 40 ± 9 nM
- IC50 (HepG2 cells): 180 ± 6 nM
- Cell cycle distribution (%) G0–G1 (MCF-7 cells [2]): 68.43%
- Cell cycle distribution (%) G2/M (MCF-7 cells [2]): 9.3%
- Cell cycle distribution (%) S (MCF-7 cells [2]): 22.27%
- Increase of cell population at G0–G1 phase versus control (MCF-7 cells [2]): 1.09 fold
- Area difference (%) (MCF-7 cells [3]; MCF-7, after 48 h): 361.667%
- RM (rate of migration) (MCF-7 cells [3]; MCF-7, after 48 h): 7.532 μm
- Wound area at 0 h (MCF-7 cells [3]; MCF-7 scratch assay): 933.000 μm^2
- Wound area at 24 h (MCF-7 cells [3]; MCF-7 scratch assay): 836.333 μm^2
- Wound area at 48 h (MCF-7 cells [3]; MCF-7 scratch assay): 571.333 μm^2
- Wound width at 0 h (MCF-7 cells [3]; MCF-7 scratch assay): 932.006 μm
- Wound width at 24 h (MCF-7 cells [3]; MCF-7 scratch assay): 835.443 μm
- Wound width at 48 h (MCF-7 cells [3]; MCF-7 scratch assay): 570.472 μm
- IC50 [4]: 140 nM
- Selectivity index, HepG2 [5]: ~1.28
- Early apoptosis (%) (MCF-7 cells [6]): 16.53%
- Late apoptosis (%) (MCF-7 cells [6]): 29.57%
- Necrosis (%) (MCF-7 cells [6]): 5.95%
- Necrosis percentage enhancement versus control (MCF-7 cells [6]): four-fold
- Total apoptosis (%) (MCF-7 cells [6]): 52.05%
- Total apoptosis enhancement versus control (MCF-7 cells [6]): 22 fold

SMILES: COc1ccc(-n2nc(C(C)=O)s/c2=N\N=C(/C)c2ccc(NC(=O)c3ccc(Cl)cc3)cc2)cc1 [Compound 18c, N-(4-((E)-1-(((Z)-5-Acetyl-3-(4-methoxyphenyl)-1,3,4-thiadiazol-2(3H)-ylidene) hydrazono)ethyl)phenyl)-4-chlorobenzamide]
- IC50 (MCF-7 cells [1]): 190 ± 14 nM
- IC50 (HepG2 cells): 160 ± 32 nM

SMILES: CNC(=O)c1cc(Oc2ccc(NC(=O)Nc3ccc(Cl)c(C(F)(F)F)c3)cc2)ccn1 [Sorafenib, reference compound]
- IC50 (MCF-7 cells [1]): 150 ± 13 nM
- IC50 (HepG2 cells): 140 ± 52 nM

SMILES: CC(=O)c1nn(-c2ccc(Cl)cc2)/c(=N/N=C(\C)c2ccc(NC(=O)c3ccc(Cl)cc3)cc2)s1 [Compound 18d, N-(4-((E)-1-(((Z)-5-Acetyl-3-(4-chlorophenyl)-1,3,4-thiadiazol-2(3H)-ylidene) hydrazono)ethyl)phenyl)-4-chlorobenzamide]
- IC50 (MCF-7 cells [1]): 5000 ± 192 nM
- IC50 (HepG2 cells): 6170 ± 19 nM

SMILES: COc1ccc(-n2nc(C(C)=O)s/c2=N\N=C(/C)c2ccc(NC(=O)c3ccc(C)cc3)cc2)cc1 [Compound 18e, N-(4-((E)-1-(((Z)-5-Acetyl-3-(4-methoxyphenyl)-1,3,4-thiadiazol-2(3H)-ylidene) hydrazono)ethyl)phenyl)-4-methylbenzamide]
- IC50 (MCF-7 cells [1]): 190 ± 45 nM
- IC50 (HepG2 cells): 210 ± 45 nM

SMILES: CC(=O)c1nn(-c2ccc(Cl)cc2)/c(=N/N=C(\C)c2ccc(NC(=O)c3ccc(C)cc3)cc2)s1 [Compound 18f, N-(4-((E)-1-(((Z)-5-Acetyl-3-(4-chlorophenyl)-1,3,4-thiadiazol-2(3H)-ylidene) hydrazono)ethyl)phenyl)-4-methylbenzamide]
- IC50 (MCF-7 cells [1]): 440 ± 65 nM
- IC50 (HepG2 cells): 180 ± 18 nM

Source: paper PMC10728955 (RSC Advances, 2023)
